Measured values reported in US9000162B2, “5,8-difluoro-4-(2-(4-(heteroaryloxy)-phenyl)ethylamino)quinazolines and their use as agrochemicals” (Dow AgroSciences LLC, priority 2008, dated 2015).
≈ marks a conversion by molar mass, not a printed value.

What was measured:
[1] = tested on: Pseudoperonospora cubensis (PSPECU); test: Cucumber downy mildew foliar protectant test; assay type: in vivo; conditions: 200 ppm foliar, inoculated one day after treatment, read-out: Activity against fungal diseases PSPECU
Procedure, shortened: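 Cucumber seedlings, first true leaf 20-80% expanded, were sprayed to wetness with formulated compound and inoculated next day with aqueous sporangia suspension. Severity was converted to percent control versus untreated inoculated plants: ***=80-100%, **=50-79%, *=0-49%.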

[2] = tested on: Puccinia recondita tritici (PUCCRT); test: Leaf rust of wheat foliar protectant test; assay type: in vivo; conditions: 200 ppm foliar, inoculated one day after treatment, read-out: Activity against fungal diseases PUCCRT
Procedure, shortened: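 Wheat seedlings (3–8 per pot) were sprayed to wet with formulated compound and inoculated the next day with an aqueous Puccinia recondita tritici spore suspension. Severity was converted to % control versus untreated inoculated plants and rated *** 80–100%, ** 50–79%, * 0–49%.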

[3] = tested on: Magnaporthe grisea = Pyricularia oryzae (PYRIOR); test: whole plant or invertebrate; assay type: in vivo; conditions: foliar, read-out: Activity against fungal diseases PYRIOR
[4] = tested on: Septoria tritici (SEPTTR); test: Septoria blotch of wheat foliar protectant test; assay type: in vivo; conditions: Zymoseptoria tritici, read-out: Activity against fungal diseases SEPTTR; for pest or weed control at 200 ppm: 200 ppm foliar, inoculated one day after treatment
Procedure, shortened: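 Wheat seedlings (3-10 per pot) were sprayed to wet with formulated compound and inoculated next day with Septoria tritici spores. Plants then had 1 day in a dark dew chamber and 3 days in a lighted one before greenhouse incubation. Severity versus untreated inoculated plants gave percent control, scored *** 80-100%, ** 50-79%, * 0-49%.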

Caenorhabditis elegans = conditions: 10 micrograms per milliliter agar, 24 h at 20° C.
Experimental: The activity of the compounds against Caenorhabditis elegans was determined by dissolving compounds in DMSO, then applying them to petri dishes containing Nematode Growth Medium agar to a final concentration of 10 μg compound per milliliter agar. Escherichia coli bacteria were grown on the plates to provide a food source for the larvae of Caenorhabditis elegans. The bacteria were heat-killed at 65° C. before compounds were added to the plates.
The plates with compound and heat-killed bacteria were infested with 10 microliter drops containing eggs from wild-type Caenorhabditis elegans worms. Adult worms were dissolved in KOH and bleach and washed in Ringers solution to generate the egg suspension. Each compound was screened with approximately 400 eggs, divided between two petri dishes. Egg hatching was evaluated after 24 h at 20° C. Mortality was averaged over the two plates.

[5] = tested on: Colorado Potato Beetle (Leptinotarsa decemlineata, LPTNDE); test: Colorado Potato Beetle larvae on sprayed tomato leaves; assay type: in vivo; conditions: foliar, 72 h, L2 larvae on sprayed tomato foliage, mortality after three days
Experimental: Formulated test compounds were diluted and sprayed onto leaves of tomato plants. When dry, plant foliage was removed from the plant and placed in 8-well agar trays. Five L2 Colorado potato beetle larvae were placed in each well, and the trays were sealed and incubated at 26° C. Mortality was evaluated after three days.

[6] = tested on: Septoria tritici (SEPTTR); test: Synergy with pyraclostrobin or epoxiconazole against Septoria blotch; conditions: alone
Experimental: (§1) The compound was evaluated in mixtures with pyraclostrobin, or epoxiconazole for protectant and curative activity against wheat leaf rust (Puccinia triticina, PUCCRT), and Septoria blotch (Septoria tritici, SEPTTR).
(§2) The compound was formulated at six rates (8.1, 2.7, 0.9, 0.3, 0.1, 0.03 ppm) and applied to wheat plants alone and in all combinations of it with pyraclostrobin or epoxiconazole using the methods described in section “Fungicidal Activity” above. Plants were inoculated three days before treatment (3DC) or one day after treatment (1DP), incubated in a greenhouse until disease was expressed, and visually rated (reported as % DC Obs) as described above. The expected control was calculated using the Colby equation (Colby, S. R. Calculation of the synergistic and antagonistic response of herbicide combinations. Weeds 1967 15, 20-22.).
(§3) The following equation was used to calculate the expected activity of mixtures containing two active ingredients, A and B: Expected=A+B−(A×B/100)
(§4) A=observed efficacy of active ingredient A at the same concentration as used in the mixture
(§5) B=observed efficacy of active ingredient B at the same concentration as used in the mixture

[7] = tested on: Puccinia triticina (PUCCRT); test: Synergy with pyraclostrobin or epoxiconazole against wheat leaf rust; conditions: alone
Experimental: as §1, §2, §3, §4, §5

[8] = Mouse oral exposure (gavage), 14 days; parameters: species or system mice; conditions: female, CD-1/Swiss derived albino, in vivo, 5% w/v in 0.5% carboxymethylcellulose, monitored 14 days
Experimental: The effect on mice of oral exposure was determined for compounds differing only in the number of fluorine substituents on the quinazoline ring, as shown in Table 5. Three CD-1/Swiss derived albino female mice were administered compounds by gavage as a 5% w/v mixture in 0.5% carboxymethylcellulose solution. The animals were monitored for 14 days.

Compound | pest or weed control at 200 ppm [1] [%] | pest or weed control at 200 ppm [2] [%] | pest or weed control at 200 ppm [3] [%] | pest or weed control at 200 ppm [4] [%] | Percent mortality (Caenorhabditis elegans) [%] | other results
N#Cc1cc(Cl)ncc1Oc1ccc(CCNc2ncnc3c(F)ccc(F)c23)cc1 [Compound 125] | 80 to 100 | 80 to 100 | 80 to 100 | 80 to 100 | 0 | –
Fc1cc(F)c2ncnc(NCCc3ccc(Oc4ccc(C(F)(F)F)cn4)cc3)c2c1F [Compound 74] | 80 to 100 | 80 to 100 | 80 to 100 | 80 to 100 | – | LC90 [5]: 1 µg/mL (≈ 2.15 µM)
COc1cc(CCNc2ncnc3c(F)ccc(F)c23)ccc1Oc1cc(C(F)(F)F)ccn1 [Compound 15] | 80 to 100 | 80 to 100 | 80 to 100 | 80 to 100 | – | % DC Obs ([6]; 1DP SEPTTR, 2.7 ppm): 31%; % DC Obs ([6]; 3DC SEPTTR, 0.9 ppm): 22%; % DC Obs ([7]; 1DP PUCCRT, 0.3 ppm): 33%; % DC Obs ([7]; 3DC PUCCRT, 0.3 ppm): 6%; % DC Obs ([7]; 3DC PUCCRT, 0.9 ppm): 52%
Fc1cc(Oc2cc(C(F)(F)F)ccn2)ccc1CCNc1ncnc2c(F)ccc(F)c12 [Compound 76] | 80 to 100 | 80 to 100 | 80 to 100 | 80 to 100 | 100 | –
Fc1ccc(F)c2c(NCCc3ccc(Oc4ccc(C(F)(F)F)cn4)cc3)ncnc12 [Compound 1] | 80 to 100 | 80 to 100 | 80 to 100 | 80 to 100 | – | LC90 [5]: 0.49 µg/mL (≈ 1.1 µM)
[O-][n+]1ccc(C(F)(F)F)c(Oc2ccc(CCNc3ncnc4c(F)ccc(F)c34)cc2)c1 [Compound 115] | 80 to 100 | 80 to 100 | 80 to 100 | 80 to 100 | 100 | –
Fc1ccc(F)c2c(NCCc3ccc(Oc4ccnc(C(F)(F)F)c4)cc3)ncnc12 [Example 11, (5,8-Difluoroquinazolin-4-yl)-{2-[4-(2-trifluoromethylpyridin-4-yloxy)-phenyl]-ethyl}-amine] | – | – | – | – | – | melting point: 95 to 96 °C
N#Cc1ccc(Oc2ccc(CCNc3ncnc4c(F)ccc(F)c34)cc2)nc1 [Compound 124] | 80 to 100 | 80 to 100 | 80 to 100 | – | – | pest or weed control at 25 ppm ([4]; foliar, Tested at 25 ppm (footnote b)): 50 to 79%; LC90 [5]: 3.1 to 12.5 µg/mL (≈ 7.68 to 31 µM)
Fc1cc(F)c2ncnc(NCCc3ccc(Oc4cnccc4C(F)(F)F)c(Cl)c3)c2c1F [Compound 93] | – | 80 to 100 | 80 to 100 | 80 to 100 | 100 | –
ivermectin [reference compound] | – | – | – | – | 95 | –
Fc1cc(F)c2ncnc(NCCc3ccc(Oc4cc(C(F)(F)F)ccn4)cc3)c2c1F [Compound 31] | 80 to 100 | 80 to 100 | 80 to 100 | 80 to 100 | – | LD50 at 14 days [8]: > 500 mg/kg; LC90 [5]: 50 to 200 µg/mL (≈ 108 to 431 µM)
Fc1cccc2c(NCCc3ccc(Oc4cc(C(F)(F)F)ccn4)cc3)ncnc12 [drawing 198, reference compound] | – | – | – | – | – | LD50 at 14 days [8]: < 100 mg/kg
COc1ccc(CCNc2ncnc3c(F)ccc(F)c23)c(C)c1 [Compound 42] | 80 to 100 | 80 to 100 | 80 to 100 | 80 to 100 | 6 | –
COC(=O)N(OC)c1ccccc1COc1ccn(-c2ccc(Cl)cc2)n1 [pyraclostrobin] | – | – | – | – | – | % DC Obs ([6]; 1DP SEPTTR, 0.3 ppm): 49%; % DC Obs ([6]; 3DC SEPTTR, 0.1 ppm): 14%; % DC Obs ([7]; 1DP PUCCRT, 0.1 ppm): 8%; % DC Obs ([7]; 3DC PUCCRT, 0.3 ppm): 4%
Fc1ccc(F)c2c(NCCc3ccc(Oc4nccc(C(F)(F)F)n4)cc3)ncnc12 [Compound 3] | 80 to 100 | 80 to 100 | 50 to 79 | 80 to 100 | 100 | –
Fc1ccc([C@]2(Cn3cncn3)O[C@H]2c2ccccc2Cl)cc1 (racemic) [epoxiconazole] | – | – | – | – | – | % DC Obs ([6]; 1DP SEPTTR, 0.3 ppm): 36%; % DC Obs ([6]; 3DC SEPTTR, 0.3 ppm): 35%; % DC Obs ([7]; 1DP PUCCRT, 0.1 ppm): 0%; % DC Obs ([7]; 3DC PUCCRT, 0.1 ppm): 13%
Fc1ccc(F)c2c(NCCc3ccc(Oc4cc(C(F)(F)F)ccn4)cc3)ncnc12 [Compound 6] | 80 to 100 | 80 to 100 | 80 to 100 | 80 to 100 | – | LD50 at 14 days [8]: 100 to 500 mg/kg; LC90 [5]: 12.5 to 50 µg/mL (≈ 28 to 112 µM)
